Earlier results, collected in publication PMC5063953 (Biochemical Pharmacology, 2016).

System: hGIPR
Conditions: R5.40A; ref [71]; cited from earlier work

## glucose-dependent insulinotropic peptide (YAEGTFISDYSIAMDKIHQQDFVNWLLAQKGKKNDWKHNITQ; Gastric inhibitory polypeptide; UniProt P09681 52-93, looked up) [GIP]
  Effect compared with WT: cAMP production: Reduced GIP mediated cAMP production.
